The values below are quoted from earlier work in publication PMC3691235, “Discovery of a Novel Dual Fungal CYP51/Human 5-Lipoxygenase Inhibitor: Implications for Anti-Fungal Therapy” (PLoS ONE, 2013).

In the series the target is T1, Homo sapiens CYP51 (HsCYP51) (Homo sapiens, UniProt Q16850).
T1 construct: made in house; host or cells: E. coli
T1 sequence (Q16850 1-509): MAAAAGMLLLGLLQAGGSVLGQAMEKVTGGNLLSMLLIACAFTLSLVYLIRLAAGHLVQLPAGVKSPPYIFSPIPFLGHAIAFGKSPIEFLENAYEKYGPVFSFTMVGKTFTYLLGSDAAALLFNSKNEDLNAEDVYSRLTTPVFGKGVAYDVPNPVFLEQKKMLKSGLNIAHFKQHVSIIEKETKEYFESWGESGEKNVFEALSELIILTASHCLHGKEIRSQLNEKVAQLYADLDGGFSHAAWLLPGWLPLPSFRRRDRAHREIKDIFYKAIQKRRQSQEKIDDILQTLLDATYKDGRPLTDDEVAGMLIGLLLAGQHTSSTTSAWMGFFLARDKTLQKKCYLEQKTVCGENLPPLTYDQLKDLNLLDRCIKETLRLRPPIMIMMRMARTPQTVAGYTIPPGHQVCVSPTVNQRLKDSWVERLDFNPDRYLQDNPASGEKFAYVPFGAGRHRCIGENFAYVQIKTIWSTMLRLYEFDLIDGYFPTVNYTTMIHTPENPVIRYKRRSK
More on the design: method as in PMID 20149798. The conditions noted are these: ref [40]; read-out: Kd with HsCYP51, previously reported; cited from earlier work.

Take `CC(=O)N1CCN(c2ccc(OCC3COC(Cn4ccnc4)(c4ccc(Cl)cc4Cl)O3)cc2)CC1` (stereo not shown) [ketoconazole, reference compound]: the dissociation constant (Kd) was around 0.18 µM.
